The values below come from EPA's ToxValDB 9.5 (doi:10.2903/j.efsa.2014.3485).

Data set [1] relates to Colinus virginianus. The conditions noted are these: oral.
Data set [2] has as its system Rattus norvegicus. The conditions noted are these: oral; for LD50: acute, mortality.
Data set [3] concerns Apis mellifera. The conditions noted are these: acute, duration: 48 hours, mortality.
Data set [4] relates to Canidae. The conditions noted are these: chronic; duration: 1 years; oral; Dog Other; histopathology: nonneoplastic.
The subject of data set [5] is Daphnia magna. The conditions noted are these: chronic/long-term; duration: 21 days; reproduction.
Data set [6] concerns Hypoaspis aculeifer. Particulars: chronic/long-term.
In data set [7] the test system is Mus musculus. The conditions noted are these: developmental; development.
Data set [8] has as its system Neomysis kadiakensis. The conditions noted are these: chronic/long-term; duration: 28 days; reproduction.
Data set [9] relates to Oncorhynchus mykiss.
Data set [10] concerns Tagia sp.
The test system of data set [11] is Typhlodromus pyri. Put plainly: LR50; higher = less toxic. The conditions noted are these: not reported; mortality.
Where [12] appears, read: reproduction developmental, diet, reproduction.

≈ marks a conversion by molar mass, not a printed value. A value given as a limit tells only on which side of the number the result lay.

As to `NC(Cc1ncn[nH]1)C(=O)O` (stereo not given) [1,2,4-Triazole-3-alanine], in [1] (acute, diet, mortality), the LC50 is greater than 1370 mg/kg-day. The same compound gave an LD50 in data set [2] greater than 5000 mg/kg-day.
`CC(C)(C)C(O)(CCc1ccc(Cl)cc1)Cn1cncn1` (stereo not given) [Tebuconazole]: the LD50 in data set [3] (dermal) is greater than 200 µg/piece; in data set [3] (oral, unspecified) it was greater than 83 µg/piece; in data set [1] (acute, mortality), 1990 mg/kg-day; in data set [2], 1700 mg/kg-day. Besides, in data set [4], the NOAEL (in general, the highest dose or exposure tested at which no adverse effect was seen) was found to be 3 mg/kg-day. Further, the LC50 was greater than 703 mg/kg-day in data set [1] (acute, diet, mortality); 4.4 µg/mL (≈ 14.3 µM) in [9] (acute, duration: 96 hours, mortality); 1380 mg/kg in [10] (acute, duration: 14 days, mortality). The LOEL in data set [1] (setting [12]) is 12.4 mg/kg-day. Moreover, the NOEL in data set [1] (setting [12]) was found to be 5.8 mg/kg-day; in data set [2] (reproduction developmental, diet, body weight), 10 mg/kg-day. In addition, the NOEC stood at 0.01 mg/L in data set [5]; 50 mg/kg in data set [6]; 0.035 mg/L in [8]; 0.012 mg/L in data set [9] (chronic/long-term, duration: 83 days, growth); 10 mg/kg in [10] (chronic/long-term, duration: 56 days, reproduction). The LOAEL (usually the lowest dose or exposure tested at which an adverse effect was seen) in data set [7] is 10 mg/kg-day. Besides, in data set [11], the LR50 was determined as 58 g/ha.
